Literature values, collected in US12084601B2, “Packaging patches having disinfecting sealing layer” (AMCOR FLEXIBLES NORTH AMERICA, INC., priority 2017, dated 2024).

For `[O][Cl+][O-]` [chlorine dioxide], the “Half-life of chlorine dioxide degradation (first order kinetics)” value (ambient room light and temperature, depending on initial ClO2 concentration) is listed as 2 to 3 h and the “Time for chlorine dioxide concentration in the package to reach levels sufficiently low for safe opening” value (spontaneous degradation, prior packages) is listed as 12 to 48 h.
